The values that follow come from US12441726B2, “Compounds and uses thereof” (Foghorn Therapeutics Inc., priority 2020, dated 2025).

For one test, the target named is BRG-1 (Homo sapiens, UniProt P51532). Briefly: ATPase catalytic activity assay (ADP-Glo), BRG-1. The settings on record: for Emax: 1 h, read-out: BRG1 Max % Inhibition, ADP-Glo, 30 nM BRG-1, 400 μM ATP. (In general: ADP-Glo first removes unused ATP, then detects ADP through luciferase.)
In another test the target is BRM (Homo sapiens, UniProt P51531). In words: ATPase catalytic activity assay (ADP-Glo), BRM. The settings on record: 30 nM BRM, 400 μM ATP; for IC50: BRM ATPase: IC50 (uM).
Chain of BRM (P51531 whole entry): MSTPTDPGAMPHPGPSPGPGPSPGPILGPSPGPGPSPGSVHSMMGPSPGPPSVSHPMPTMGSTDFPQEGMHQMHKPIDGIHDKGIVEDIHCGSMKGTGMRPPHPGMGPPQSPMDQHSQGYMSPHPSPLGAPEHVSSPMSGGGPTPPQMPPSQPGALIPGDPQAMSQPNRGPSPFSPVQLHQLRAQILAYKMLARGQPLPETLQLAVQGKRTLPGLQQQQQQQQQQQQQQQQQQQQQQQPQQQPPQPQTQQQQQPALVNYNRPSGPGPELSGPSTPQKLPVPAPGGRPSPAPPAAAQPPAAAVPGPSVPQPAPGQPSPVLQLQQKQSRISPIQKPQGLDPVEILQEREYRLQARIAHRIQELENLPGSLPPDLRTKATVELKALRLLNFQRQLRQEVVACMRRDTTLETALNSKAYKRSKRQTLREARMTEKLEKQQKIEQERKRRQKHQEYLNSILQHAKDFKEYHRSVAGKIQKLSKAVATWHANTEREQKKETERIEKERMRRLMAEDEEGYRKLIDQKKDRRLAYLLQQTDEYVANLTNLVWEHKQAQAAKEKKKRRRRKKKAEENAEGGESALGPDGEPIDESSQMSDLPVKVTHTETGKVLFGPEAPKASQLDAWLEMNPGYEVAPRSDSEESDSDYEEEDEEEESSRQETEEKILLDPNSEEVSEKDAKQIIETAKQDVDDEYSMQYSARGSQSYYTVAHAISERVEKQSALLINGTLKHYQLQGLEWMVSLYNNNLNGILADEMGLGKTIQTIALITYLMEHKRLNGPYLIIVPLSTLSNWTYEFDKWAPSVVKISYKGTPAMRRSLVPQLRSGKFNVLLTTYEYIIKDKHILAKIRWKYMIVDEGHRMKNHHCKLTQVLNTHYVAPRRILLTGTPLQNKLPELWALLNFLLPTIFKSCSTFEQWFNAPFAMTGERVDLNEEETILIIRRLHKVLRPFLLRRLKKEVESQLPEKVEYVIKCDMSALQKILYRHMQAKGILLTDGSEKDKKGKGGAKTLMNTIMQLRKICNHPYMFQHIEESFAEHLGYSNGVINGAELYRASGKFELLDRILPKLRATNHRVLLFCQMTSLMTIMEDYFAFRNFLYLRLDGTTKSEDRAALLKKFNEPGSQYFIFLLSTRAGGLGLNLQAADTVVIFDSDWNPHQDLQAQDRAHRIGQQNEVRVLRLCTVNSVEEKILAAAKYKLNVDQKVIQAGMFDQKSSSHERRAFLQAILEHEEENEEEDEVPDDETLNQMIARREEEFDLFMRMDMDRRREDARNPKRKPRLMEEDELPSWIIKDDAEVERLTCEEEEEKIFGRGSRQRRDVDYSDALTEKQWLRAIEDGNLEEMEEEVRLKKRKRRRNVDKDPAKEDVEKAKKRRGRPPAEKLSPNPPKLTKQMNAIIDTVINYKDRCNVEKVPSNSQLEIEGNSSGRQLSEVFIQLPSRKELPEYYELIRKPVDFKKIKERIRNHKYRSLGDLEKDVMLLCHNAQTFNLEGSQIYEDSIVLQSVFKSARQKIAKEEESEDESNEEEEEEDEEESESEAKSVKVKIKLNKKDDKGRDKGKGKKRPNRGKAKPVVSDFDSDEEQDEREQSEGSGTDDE

Each structure is given as a SMILES string. Where only a bound is given, the exact number is not on record here.

Chain of BRG-1 (P51532 whole entry): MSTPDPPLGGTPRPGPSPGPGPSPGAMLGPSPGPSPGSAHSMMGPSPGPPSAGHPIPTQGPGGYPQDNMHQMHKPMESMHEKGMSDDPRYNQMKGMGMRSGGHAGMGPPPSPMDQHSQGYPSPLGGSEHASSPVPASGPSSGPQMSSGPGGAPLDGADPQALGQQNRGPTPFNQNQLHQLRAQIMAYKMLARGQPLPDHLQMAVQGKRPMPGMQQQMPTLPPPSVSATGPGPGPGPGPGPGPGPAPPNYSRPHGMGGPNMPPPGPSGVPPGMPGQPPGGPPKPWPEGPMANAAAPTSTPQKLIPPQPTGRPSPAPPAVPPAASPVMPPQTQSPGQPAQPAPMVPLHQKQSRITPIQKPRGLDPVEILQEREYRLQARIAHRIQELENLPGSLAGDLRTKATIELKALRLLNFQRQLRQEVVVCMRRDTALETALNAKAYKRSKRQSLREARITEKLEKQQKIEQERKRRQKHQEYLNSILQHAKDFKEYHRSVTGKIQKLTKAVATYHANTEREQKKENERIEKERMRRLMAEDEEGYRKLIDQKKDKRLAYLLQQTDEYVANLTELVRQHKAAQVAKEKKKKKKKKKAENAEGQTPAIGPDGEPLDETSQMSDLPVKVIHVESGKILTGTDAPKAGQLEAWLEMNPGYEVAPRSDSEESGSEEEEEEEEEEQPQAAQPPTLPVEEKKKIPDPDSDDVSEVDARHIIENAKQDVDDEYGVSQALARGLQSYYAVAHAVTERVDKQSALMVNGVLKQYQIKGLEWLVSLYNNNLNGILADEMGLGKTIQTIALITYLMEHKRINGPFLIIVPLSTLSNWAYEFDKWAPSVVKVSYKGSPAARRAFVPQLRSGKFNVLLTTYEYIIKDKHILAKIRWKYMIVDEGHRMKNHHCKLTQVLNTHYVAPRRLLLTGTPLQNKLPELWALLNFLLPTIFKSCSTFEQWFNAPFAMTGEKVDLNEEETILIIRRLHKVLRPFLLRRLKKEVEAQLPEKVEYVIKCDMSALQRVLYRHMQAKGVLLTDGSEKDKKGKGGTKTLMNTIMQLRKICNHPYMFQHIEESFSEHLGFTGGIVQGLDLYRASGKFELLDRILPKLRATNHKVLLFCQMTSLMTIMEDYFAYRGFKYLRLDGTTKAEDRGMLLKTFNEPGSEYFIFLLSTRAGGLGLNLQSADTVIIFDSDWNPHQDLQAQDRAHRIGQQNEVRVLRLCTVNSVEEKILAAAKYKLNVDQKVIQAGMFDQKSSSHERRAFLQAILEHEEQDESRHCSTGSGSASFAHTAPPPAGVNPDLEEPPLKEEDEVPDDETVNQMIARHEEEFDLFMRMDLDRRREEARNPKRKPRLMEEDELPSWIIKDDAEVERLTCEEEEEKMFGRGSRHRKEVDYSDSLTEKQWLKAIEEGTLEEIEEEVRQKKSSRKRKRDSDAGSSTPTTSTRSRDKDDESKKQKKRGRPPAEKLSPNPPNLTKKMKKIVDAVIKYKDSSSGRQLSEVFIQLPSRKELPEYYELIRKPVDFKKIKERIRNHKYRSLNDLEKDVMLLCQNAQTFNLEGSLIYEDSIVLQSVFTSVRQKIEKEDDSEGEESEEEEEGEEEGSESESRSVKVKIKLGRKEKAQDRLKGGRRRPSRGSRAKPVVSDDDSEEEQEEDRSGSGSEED

A word on the IC50: it is the concentration at which inhibition is half-maximal. High values mean lower potency, low ones higher potency. With `C[C@@]1(C#N)COCc2ccc(C(=O)NCc3cc4nc(-c5ccnc(N6CC[C@@H](F)C6)n5)ccc4cn3)cc21` [Compound 306], at BRG-1, the IC50 is 100 to 500 nM and the Emax came out at 94%. Also, at BRM, the “BRM Max % Inhibition” value came to 99% and the IC50 is less than 0.1 µM.
The like results for `C[C@@]1(C#N)COCc2ccc(C(=O)NCc3cc(N4CCC5CCCCC5C4)ccn3)cc21` (some centres unmarked) [Compound 57] were, in that order, greater than 1000 nM, 37%, 85% and 0.1 to 0.5 µM.
The like results for `C[C@@]1(C#N)COCc2ccc(C(=O)NCc3cc(C#Cc4ccccc4)ccn3)cc21` [Compound 1] were, in that order, greater than 1000 nM, 56%, 90% and 0.1 to 0.5 µM.
For `C[C@@]1(C#N)COCc2ccc(C(=O)NCc3cc4nc(-c5ccncc5)ccc4cn3)cc21` [Compound 451] the same measures were 500 to 1000 nM, 58%, 93% and 0.1 to 0.5 µM.
Take `C[C@@]1(F)COCc2ncc(C(=O)NCc3cc4nc(-c5ccccc5)ccc4cn3)cc21` [Compound 413]: on BRG-1, the IC50 is 500 to 1000 nM and the Emax came to 51%. In addition, at BRM, the “BRM Max % Inhibition” value was found to be 92% and the half-inhibitory concentration (IC50) is 0.1 to 0.5 µM.
The like results for `CN1Cc2nc(-c3ccc4cnc(CNC(=O)c5ccc6c(c5)[C@](C)(C#N)COC6)cc4n3)ccc2C1=O` [Compound 427] were, in that order, 100 to 500 nM, 87%, 99% and less than 0.1 µM.
`C[C@@]1(C#N)COCc2ccc(C(=O)NCc3cc4nc(-c5ccnc(N6CC[C@H](F)C6)n5)ccc4cn3)cc21` [Compound 341]: at BRG-1, the IC50 was 100 to 500 nM and the Emax turned out to be 93%. In addition, at BRM, the “BRM Max % Inhibition” value amounted to 100% and the IC50 is less than 0.1 µM.
With `C[C@@]1(C#N)COCc2ccc(C(=O)NCc3cc(OCc4cccc(N5CCC5)n4)ccn3)cc21` [Compound 34], on BRG-1, the IC50 is greater than 1000 nM and the Emax amounted to 53%. Further, at BRM, the “BRM Max % Inhibition” value was determined as 94% and the IC50 was 0.1 to 0.5 µM.
For `C[C@@H]1COCCN1c1nccc(-c2ccc3cnc(CNC(=O)c4ccc5c(c4)[C@](C)(C#N)COC5)cc3n2)n1` [Compound 363] the same measures were 100 to 500 nM, 94%, 98% and less than 0.1 µM.
Regarding `C[C@@]1(F)COCc2ccc(C(=O)NCc3cc4nc(-c5ccccc5)sc4cn3)cc21` [Compound 300], on BRG-1, the IC50 was in the range of 500 to 1000 nM and the Emax worked out at 63%. In addition, at BRM, the “BRM Max % Inhibition” value is 99% and the IC50 was in the range of 0.1 to 0.5 µM.
As to `C[C@@]1(F)COCc2ccc(C(=O)NCc3cc4nc(-c5ccccc5)ccc4nn3)cc21` [Compound 277], on BRG-1, the IC50 fell in the range of 500 to 1000 nM and the Emax stood at 69%. Further, on BRM, the “BRM Max % Inhibition” value is listed as 96% and the IC50 lay within 0.1 to 0.5 µM.
`C[C@@]1(C#N)COCc2ccc(C(=O)NCc3cc4nc(-c5ccnc(N6CCC6)c5F)sc4cn3)cc21` [Compound 235]: on BRG-1, the half-inhibitory concentration (IC50) was in the range of 100 to 500 nM and the Emax came out at 72%. At BRM, the “BRM Max % Inhibition” value is reported as 99% and the IC50 was less than 0.1 µM.
For `COc1c(F)cccc1-c1ccc2cnc(CNC(=O)c3ccc4c(c3)[C@](C)(C#N)COC4)cc2n1` [Compound 516] the same measures were 500 to 1000 nM, 77%, 96% and 0.1 to 0.5 µM.
For the molecule `C[C@@]1(F)COCc2ccc(C(=O)NCc3cc4nc(-c5cccc(N6CCC6)n5)cnc4cn3)cc21` [Compound 214], at BRG-1, the IC50 fell in the range of 100 to 500 nM and the Emax amounted to 93%. For the same molecule, on BRM, the “BRM Max % Inhibition” value was 99% and the IC50 was less than 0.1 µM.
For `COc1cncc(-c2ccc3nnc(CNC(=O)c4ccc5c(c4)[C@](C)(C#N)COC5)cc3c2)n1` [Compound 349] the same measures were 100 to 500 nM, 87%, 100% and less than 0.1 µM.
Regarding `COc1cc(-c2ccc3cnc(CNC(=O)c4ccc5c(c4)[C@](C)(C#N)COC5)cc3n2)c(F)cn1` [Compound 446], on BRG-1, the IC50 was greater than 1000 nM and the Emax worked out at 44%. Also, on BRM, the “BRM Max % Inhibition” value stood at 87% and the IC50 is 0.1 to 0.5 µM.
The like results for `COC1(c2cccc(-c3ccc4cnc(CNC(=O)c5ccc6c(c5)[C@](C)(C#N)COC6)cc4n3)n2)COC1` [Compound 419] were, in that order, 500 to 1000 nM, 64%, 93% and 0.1 to 0.5 µM.
The like results for `CNC(=O)c1ccc(-c2ccc3cnc(CNC(=O)c4ccc5c(c4)[C@](C)(C#N)COC5)cc3n2)cc1` [Compound 324] were, in that order, 500 to 1000 nM, 81%, 105% and 0.1 to 0.5 µM.
The like results for `C[C@@]1(C#N)COCc2ccc(C(=O)NCc3nccc(N4Cc5ccccc5C4)c3F)cc21` [Compound 68] were, in that order, 100 to 500 nM, 91%, 98% and less than 0.1 µM.
Consider `Cn1c(=O)ccc2ccc(-c3ccc4cnc(CNC(=O)c5ccc6c(c5)[C@](C)(C#N)COC6)cc4n3)nc21` [Compound 180], for which, at BRG-1, the IC50 lay in the range of 100 to 500 nM and the Emax was 99%. Further, on BRM, the “BRM Max % Inhibition” value came to 100% and the IC50 was less than 0.1 µM.
For `C[C@@]1(C#N)COCc2ccc(C(=O)NCc3cc4nc(-c5cc(F)cc(N6CCC6)c5)ccc4cn3)cc21` [Compound 95] the same measures were 100 to 500 nM, 93%, 99% and less than 0.1 µM.
On to `COCCNC(=O)c1ccc(-c2ccc3cnc(CNC(=O)c4ccc5c(c4)[C@](C)(C#N)COC5)cc3n2)cc1` [Compound 323], for which, at BRG-1, the IC50 is 500 to 1000 nM and the Emax amounted to 76%. Also, at BRM, the “BRM Max % Inhibition” value turned out to be 108% and the IC50 lay within 0.1 to 0.5 µM.
As for `C[C@@]1(C#N)CCOc2ccc(C(=O)NCc3cc4nc(-c5ccccc5)sc4cn3)cc21` [Compound 118], on BRG-1, the IC50 is greater than 1000 nM and the Emax stood at 40%. On BRM, the “BRM Max % Inhibition” value was found to be 89% and the IC50 is greater than 1 µM.
As to `Cc1cn(C)c2cccc(-c3ccc4cnc(CNC(=O)c5ccc6c(c5)[C@](C)(C#N)COC6)cc4n3)c12` [Compound 177], on BRG-1, the IC50 is 500 to 1000 nM and the Emax came to 66%. Besides, on BRM, the “BRM Max % Inhibition” value amounted to 94% and the IC50 was in the range of 0.1 to 0.5 µM.
On to `Cn1cc(-c2ccc3cnc(CNC(=O)c4ccc5c(c4)[C@](C)(C#N)COC5)cc3n2)cn1` [Compound 104], for which, at BRG-1, the IC50 is greater than 1000 nM and the Emax was found to be 33%. Also, on BRM, the “BRM Max % Inhibition” value worked out at 84% and the IC50 lay within 0.5 to 1 µM.
With `CC(C)n1ccc2c(-c3ccc4cnc(CNC(=O)c5ccc6c(c5)[C@](C)(C#N)COC6)cc4n3)cccc21` [Compound 174], on BRG-1, the 50% inhibitory concentration (IC50) is 100 to 500 nM and the Emax was found to be 95%. Besides, on BRM, the “BRM Max % Inhibition” value is reported as 98% and the IC50 was less than 0.1 µM.
For `COc1nn(C(F)F)cc1-c1ccc2cnc(CNC(=O)c3cnc4c(c3)[C@](C)(F)COC4)cc2n1` [Compound 192] the same measures were 500 to 1000 nM, 60%, 94% and 0.1 to 0.5 µM.
Consider `COC(=O)c1cccc(/C=C/c2ccnc(CNC(=O)c3ccc4c(c3)[C@](C)(C#N)COC4)c2)c1` [Compound 26], for which, at BRG-1, the IC50 fell in the range of 100 to 500 nM and the Emax stood at 90%. On BRM, the “BRM Max % Inhibition” value worked out at 100% and the IC50 is less than 0.1 µM.
The like results for `C[C@@]1(C#N)COCc2ccc(C(=O)NCc3cc4nc(-c5cccc(N6CCC6=O)c5)ccc4cn3)cc21` [Compound 393] were, in that order, less than 100 nM, 96%, 99% and less than 0.1 µM.
`C[C@@]1(F)COCc2ccc(C(=O)NCc3cc4nc(-c5cccc(N6CCC6)n5)ccc4cn3)cc21` [Compound 295]: on BRG-1, the IC50 is 100 to 500 nM and the Emax is 93%. On BRM, the “BRM Max % Inhibition” value is on record as 100% and the IC50 was less than 0.1 µM.
Regarding `C[C@@H](NC(=O)c1ccc2c(c1)[C@](C)(C#N)COC2)c1cc2nc(-c3ccccc3)ccc2cn1` [Compound 88], at BRG-1, the half-inhibitory concentration (IC50) was greater than 1000 nM and the Emax came to 73%. Besides, at BRM, the “BRM Max % Inhibition” value came to 96% and the IC50 fell in the range of 0.1 to 0.5 µM.
Take `Cc1nn(-c2ccc3cnc(CNC(=O)c4ccc5c(c4)[C@](C)(C#N)COC5)cc3n2)cc1F` [Compound 433]: on BRG-1, the IC50 is 500 to 1000 nM and the Emax came out at 59%. At BRM, the “BRM Max % Inhibition” value is listed as 96% and the IC50 lay in the range of 0.1 to 0.5 µM.
For `C[C@@]1(C#N)COCc2ncc(C(=O)NCc3cc4nc(-c5cccc(C6CC6)n5)ccc4nn3)cc21` [Compound 189] the same measures were 100 to 500 nM, 93%, 99% and less than 0.1 µM.
On to `C[C@@]1(C#N)COCc2ccc(C(=O)NCc3cc4nc(-c5cncc(N6CCC6)n5)sc4cn3)cc21` [Compound 353], for which, on BRG-1, the IC50 was in the range of 100 to 500 nM and the Emax was determined as 82%. On BRM, the “BRM Max % Inhibition” value is listed as 93% and the IC50 was less than 0.1 µM.
For `C[C@@]1(C#N)COCc2ccc(C(=O)NCc3cc4nc(-n5cccc(N6CCC6)c5=O)ccc4cn3)cc21` [Compound 283] the same measures were 500 to 1000 nM, 63%, 96% and 0.1 to 0.5 µM.
